Measured values reported in ChEMBL document CHEMBL3879901, “Substituted isoquinolin-1(2H)-ones, and methods of use thereof” (2012).
pEC50, pIC50: −log10 of the molar value.

What was measured:
[1] = Antiproliferative activity against Balb/c mouse splenic B cells preincubated for 30 mins followed by LPS or F(ab')2 donkey anti-mouse IgM and recombinant mouse IL4 stimulation measured after 72 hrs by Alamar Blue reduction assay; type: functional, cell-based
[2] = biological target: PI3-kinase p110-delta/p85-alpha (Homo sapiens, UniProt O00329); experiment: Inhibition of N-terminal His6-tagged recombinant full-length human p110delta/untagged recombinant full length p85alpha expressed in baculovirus infected Sf21 cells using phosphatidylinositol as substrate in presence of gamma-32P-ATP after 5 mins by thin layer chromatographic method
Chain of PI3-kinase p110-delta/p85-alpha (P27986 whole entry): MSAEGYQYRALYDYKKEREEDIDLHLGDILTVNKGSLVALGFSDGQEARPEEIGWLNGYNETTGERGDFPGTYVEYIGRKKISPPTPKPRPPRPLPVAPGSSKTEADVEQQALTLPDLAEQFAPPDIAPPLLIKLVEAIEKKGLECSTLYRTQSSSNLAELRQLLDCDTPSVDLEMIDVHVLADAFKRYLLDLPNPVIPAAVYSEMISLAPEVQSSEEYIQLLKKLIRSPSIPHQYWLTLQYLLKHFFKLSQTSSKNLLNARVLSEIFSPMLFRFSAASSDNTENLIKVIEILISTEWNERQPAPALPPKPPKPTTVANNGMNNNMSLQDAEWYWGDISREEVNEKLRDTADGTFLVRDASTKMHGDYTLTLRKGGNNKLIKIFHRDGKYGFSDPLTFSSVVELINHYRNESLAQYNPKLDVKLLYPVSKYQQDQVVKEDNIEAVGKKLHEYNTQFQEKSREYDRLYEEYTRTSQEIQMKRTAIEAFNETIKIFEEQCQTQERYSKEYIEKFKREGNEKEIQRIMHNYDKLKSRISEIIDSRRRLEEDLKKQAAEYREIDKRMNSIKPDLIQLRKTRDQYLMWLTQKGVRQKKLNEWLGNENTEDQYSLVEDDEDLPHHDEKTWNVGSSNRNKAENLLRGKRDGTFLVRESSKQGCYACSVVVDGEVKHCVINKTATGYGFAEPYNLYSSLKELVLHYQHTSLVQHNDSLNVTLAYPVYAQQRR
Chain of PI3-kinase p110-delta/p85-alpha (O00329 whole entry): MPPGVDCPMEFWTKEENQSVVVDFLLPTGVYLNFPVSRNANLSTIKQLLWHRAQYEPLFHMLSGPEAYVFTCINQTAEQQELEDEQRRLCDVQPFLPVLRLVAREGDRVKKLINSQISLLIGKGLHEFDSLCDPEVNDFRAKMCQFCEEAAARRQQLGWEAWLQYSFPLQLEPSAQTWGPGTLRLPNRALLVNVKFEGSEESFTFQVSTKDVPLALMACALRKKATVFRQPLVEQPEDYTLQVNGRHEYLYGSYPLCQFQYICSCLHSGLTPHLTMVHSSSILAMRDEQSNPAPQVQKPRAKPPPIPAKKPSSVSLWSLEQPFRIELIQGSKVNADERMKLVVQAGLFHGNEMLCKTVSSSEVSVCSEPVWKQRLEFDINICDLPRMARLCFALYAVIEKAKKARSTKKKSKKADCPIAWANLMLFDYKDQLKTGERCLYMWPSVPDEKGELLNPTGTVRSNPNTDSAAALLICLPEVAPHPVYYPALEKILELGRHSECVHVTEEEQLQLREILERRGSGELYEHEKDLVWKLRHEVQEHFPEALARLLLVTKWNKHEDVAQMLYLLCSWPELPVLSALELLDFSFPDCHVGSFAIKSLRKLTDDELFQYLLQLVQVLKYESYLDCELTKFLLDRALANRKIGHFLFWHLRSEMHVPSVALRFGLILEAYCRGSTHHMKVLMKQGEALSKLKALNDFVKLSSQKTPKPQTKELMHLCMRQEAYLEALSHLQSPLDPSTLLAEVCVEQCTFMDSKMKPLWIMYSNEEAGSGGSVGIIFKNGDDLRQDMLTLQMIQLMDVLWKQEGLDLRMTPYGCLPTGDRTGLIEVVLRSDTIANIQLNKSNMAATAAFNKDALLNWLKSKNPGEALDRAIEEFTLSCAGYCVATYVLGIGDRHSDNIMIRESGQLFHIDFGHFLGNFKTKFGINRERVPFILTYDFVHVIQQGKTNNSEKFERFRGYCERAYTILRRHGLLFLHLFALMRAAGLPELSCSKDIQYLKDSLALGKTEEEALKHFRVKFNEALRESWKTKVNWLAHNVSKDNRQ

pIC50 [2] | Compound | pEC50 [1]
> 7.00 | CCn1c(Cn2nc(-c3cccc(O)c3)c3c(N)ncnc32)cc2cccc(C)c2c1=O | > 7.00
> 7.00 | Cc1cccc2cc(Cn3nc(C(F)F)c4c(N)ncnc43)n(-c3ccccc3)c(=O)c12 | > 7.00
> 7.00 | Nc1ncnc2c1c(I)nn2Cc1cc2cccc(Cl)c2c(=O)n1C1CC1 | > 7.00
> 7.00 | CC(C)n1c(Cn2nc(-c3cccc(O)c3)c3c(N)ncnc32)cc2cccc(Cl)c2c1=O | > 7.00
> 7.00 | Cc1cccc2cc(Cn3nc(-c4cccc(O)c4)c4c(N)ncnc43)n(C)c(=O)c12 | > 6.00
> 7.00 | C=C(C)c1nn(Cc2cc3cccc(C)c3c(=O)n2-c2ccccc2)c2ncnc(N)c12 | 
> 7.00 | CC(C)n1c(Cn2nc(-c3cc(O)cc(F)c3)c3c(N)ncnc32)cc2cccc(Cl)c2c1=O | > 7.00
> 7.00 | CC(C)n1c(Cn2nc(-c3cc(O)cc(F)c3)c3c(N)ncnc32)cc2cccc(F)c2c1=O | > 7.00
> 7.00 | CC(C)n1c(Cn2nc(-c3cccc(O)c3)c3c(N)ncnc32)cc2ccccc2c1=O | > 6.00
> 6.00 | Nc1ncnc2c1c(-c1cccc(O)c1)nn2Cc1cc2cccc(F)c2c(=O)n1-c1ccccc1F | 
> 7.00 | CC(C)n1c(Cn2nc(-c3cc(O)cc(F)c3)c3c(N)ncnc32)cc2ccccc2c1=O | > 7.00
> 5.00 | CNC(=O)c1cccc(-c2nn(Cc3cc4cccc(C)c4c(=O)n3-c3ccccc3C)c3ncnc(N)c23)c1 | 
> 5.00 | Nc1ncnc2c1c(I)nn2Cc1cc2cccc(F)c2c(=O)n1-c1ccccc1F | 
> 7.00 | Cc1cccc2cc(C(C)Nc3ncnc4[nH]cnc34)n(-c3cccc(F)c3)c(=O)c12 (centres undefined) | > 7.00
> 7.00 | Cc1cccc2cc(Cn3nc(-c4cn[nH]c4)c4c(N)ncnc43)n(-c3ccccc3C(F)(F)F)c(=O)c12 | > 7.00
> 7.00 | Nc1ncnc2c1c(-c1cccc(O)c1)nn2Cc1cc2cccc(Cl)c2c(=O)n1C1CC1 | > 7.00
> 7.00 | CCc1nn(Cc2cc3cccc(C)c3c(=O)n2-c2ccccc2)c2ncnc(N)c12 | > 7.00
> 7.00 | Cc1cccc(C)c1-n1c(CNc2ncnc3[nH]cnc23)cc2cccc(C)c2c1=O | 
> 7.00 | Cc1cccc2cc(Cn3nc(-c4cc(O)cc(F)c4)c4c(N)ncnc43)n(C)c(=O)c12 | > 7.00
> 7.00 | CCc1nn(Cc2cc3cccc(C)c3c(=O)n2-c2ccccc2C)c2ncnc(N)c12 | > 6.00
> 7.00 | Cc1ccccc1-n1c(Cn2nc(-c3cccc(O)c3)c3c(N)nccc32)cc2cccc(C)c2c1=O | > 6.00
> 7.00 | Cc1ccccc1-n1c(Cn2nc(-c3cc(O)cc(F)c3)c3c(N)ncnc32)cc2ccccc2c1=O | > 7.00
> 7.00 | Cc1ccccc1-n1c(Cn2nc(CC#N)c3c(N)ncnc32)cc2cccc(C)c2c1=O | > 6.00
> 7.00 | Cc1cccc2cc(Cn3nc(-c4cc(O)cc(F)c4)c4c(N)ncnc43)n(C3CCOCC3)c(=O)c12 | > 7.00
> 5.00 | Cc1ccccc1-n1c(Cn2nc(-c3ccc(CN)cc3)c3c(N)ncnc32)cc2cccc(C)c2c1=O | 
> 7.00 | Nc1ncnc2c1c(-c1cc(O)cc(F)c1)nn2Cc1cc2cccc(F)c2c(=O)n1-c1ccccc1F | > 7.00
> 7.00 | CCC(Nc1ncnc2[nH]cnc12)c1cc2cccc(C)c2c(=O)n1-c1ccccc1C (centres undefined) | > 7.00
> 7.00 | Cc1cccc2cc(Cn3nc(-c4ccc(Cl)c(O)c4)c4c(N)ncnc43)n(C(C)C)c(=O)c12 | > 7.00
> 7.00 | Cc1cccc2cc(Cn3nc(-c4cn[nH]c4)c4c(N)ncnc43)n(-c3ccccc3)c(=O)c12 | > 7.00
> 5.00 | CC(C)n1c(Cn2nc(I)c3c(N)ncnc32)cc2cccc(F)c2c1=O | 

Continued, compound first:

Compound | pIC50 [2] | pEC50 [1]
Nc1ncnc2c1c(I)nn2Cc1cc2cccc(I)c2c(=O)n1C1CCCC1 |  | > 5.00
Cc1cccc2cc([C@H](C)Nc3nc(Cl)ncc3Cl)n(-c3ccccc3)c(=O)c12 |  | > 7.00
COc1ccc(-c2nn(Cc3cc4cccc(C)c4c(=O)n3-c3ccccc3F)c3ncnc(N)c23)cc1 |  | > 6.00
Cc1cccc2cc(C(C)Nc3ncnc4[nH]cnc34)n(C3CCN(C)CC3)c(=O)c12 (centres undefined) | > 7.00 | > 7.00
CCC(Nc1ncnc2[nH]cnc12)c1cc2cccc(C)c2c(=O)n1-c1cc(F)cc(F)c1 (centres undefined) | > 7.00 | > 7.00
Cc1cccc2cc([C@H](C)Nc3nc(N)ncc3F)n(-c3ccccc3)c(=O)c12 | > 7.00 | 
Cc1cccc2cc(C(C)Nc3ncnc4[nH]cnc34)n(C(C)C)c(=O)c12 (centres undefined) | > 7.00 | > 7.00
Cc1cccc2cc([C@@H](C)Nc3ncnc4[nH]cnc34)n(C3CC3)c(=O)c12 |  | < 5.00
Cc1cccc2cc([C@@H](C)Nc3ncnc4[nH]cnc34)n(-c3ccccc3)c(=O)c12 |  | > 6.00
Cc1cccc2cc(C(C)Nc3ncnc4[nH]cnc34)n(C3CCC3)c(=O)c12 (centres undefined) | > 7.00 | > 7.00
Cc1cccc2cc([C@H](C)Nc3nc(N)ncc3Cl)n(C3CC3)c(=O)c12 | > 7.00 | 
Nc1ncnc2c1c(-c1ccc(Cl)c(O)c1)nn2Cc1cc2cccc(I)c2c(=O)n1C1CCCC1 |  | > 5.00
CC(Nc1ncnc2[nH]cnc12)c1cc2cccc(Cl)c2c(=O)n1-c1ccccc1 (centres undefined) |  | > 7.00
Cc1cccc2cc([C@H](C)Nc3ncnc4[nH]nc(Cl)c34)n(C3CC3)c(=O)c12 | > 7.00 | 
Cc1cccc2cc(C(C)Nc3ncnc4[nH]cnc34)n(C3CCOCC3)c(=O)c12 (centres undefined) | > 7.00 | > 7.00
Cc1cccc2cc(C(C)Nc3ncnc4[nH]cnc34)n(-c3cc(F)cc(F)c3)c(=O)c12 (centres undefined) | > 7.00 | > 7.00
CC(C)n1c(Cn2nc(-c3cccc(O)c3)c3c(N)ncnc32)cc2cccc(F)c2c1=O |  | > 6.00
Cc1cccc2cc(C(C)Nc3ncnc4[nH]cnc34)n(CCN3CCOCC3)c(=O)c12 (centres undefined) | > 7.00 | > 7.00
Cc1ccccc1-n1c(Cn2nc(C(=O)NO)c3c(N)ncnc32)cc2cccc(C)c2c1=O |  | > 7.00
CC(Nc1ncnc2[nH]cnc12)c1cc2ccccc2c(=O)n1-c1ccccc1 (centres undefined) | > 7.00 | > 7.00
CCC(Nc1ncnc2[nH]cnc12)c1cc2cccc(C)c2c(=O)n1C(C)C (centres undefined) | > 7.00 | > 7.00
Cc1cccc2cc(C(C)Nc3ncnc4[nH]cnc34)n(CCN3CCCC3)c(=O)c12 (centres undefined) | > 7.00 | > 7.00
Cc1ccccc1-n1c(Cn2nc(C(N)=O)c3c(N)ncnc32)cc2cccc(C)c2c1=O |  | > 7.00
C[C@H](Nc1ncnc2nc[nH]c12)c1cc2cccc(Cl)c2c(=O)n1-c1ccccc1 [DUVELISIB] |  | > 7.00
CCC(Nc1ncnc2[nH]cnc12)c1cc2cccc(C)c2c(=O)n1C1CCN(C)CC1 (centres undefined) |  | > 7.00
Cc1cccc2cc([C@@H](C)Nc3ncnc4[nH]cnc34)n(C3CCC3)c(=O)c12 |  | > 5.00
Cc1cccc2cc(C(C)Nc3ncnc4[nH]cnc34)n(-c3ccccc3)c(=O)c12 (centres undefined) |  | > 7.00
CCC(Nc1ncnc2[nH]cnc12)c1cc2cccc(C)c2c(=O)n1C1CCC1 (centres undefined) | > 7.00 | > 6.00
Cc1cccc2cc([C@H](C)Nc3ncnc4ccccc34)n(-c3ccccc3)c(=O)c12 | > 7.00 | 
Cc1cccc2cc(C(C)Nc3ncnc4[nH]cnc34)n(C3CC3)c(=O)c12 (centres undefined) |  | > 7.00
